Assay results from article PMC6193938, “Characterization of a novel AICARFT inhibitor which potently elevates ZMP and has anti-tumor activity in murine models” (Scientific Reports, 2018).

Experiments:
DDR2 = biological target: T1, DDR2 (Homo sapiens, UniProt Q16832); assay: CEREP protein kinase assay; assay type: biochemical
T1 construct: purchased CEREP Panlabs (Eurofins)
T1 sequence (Q16832 22-855): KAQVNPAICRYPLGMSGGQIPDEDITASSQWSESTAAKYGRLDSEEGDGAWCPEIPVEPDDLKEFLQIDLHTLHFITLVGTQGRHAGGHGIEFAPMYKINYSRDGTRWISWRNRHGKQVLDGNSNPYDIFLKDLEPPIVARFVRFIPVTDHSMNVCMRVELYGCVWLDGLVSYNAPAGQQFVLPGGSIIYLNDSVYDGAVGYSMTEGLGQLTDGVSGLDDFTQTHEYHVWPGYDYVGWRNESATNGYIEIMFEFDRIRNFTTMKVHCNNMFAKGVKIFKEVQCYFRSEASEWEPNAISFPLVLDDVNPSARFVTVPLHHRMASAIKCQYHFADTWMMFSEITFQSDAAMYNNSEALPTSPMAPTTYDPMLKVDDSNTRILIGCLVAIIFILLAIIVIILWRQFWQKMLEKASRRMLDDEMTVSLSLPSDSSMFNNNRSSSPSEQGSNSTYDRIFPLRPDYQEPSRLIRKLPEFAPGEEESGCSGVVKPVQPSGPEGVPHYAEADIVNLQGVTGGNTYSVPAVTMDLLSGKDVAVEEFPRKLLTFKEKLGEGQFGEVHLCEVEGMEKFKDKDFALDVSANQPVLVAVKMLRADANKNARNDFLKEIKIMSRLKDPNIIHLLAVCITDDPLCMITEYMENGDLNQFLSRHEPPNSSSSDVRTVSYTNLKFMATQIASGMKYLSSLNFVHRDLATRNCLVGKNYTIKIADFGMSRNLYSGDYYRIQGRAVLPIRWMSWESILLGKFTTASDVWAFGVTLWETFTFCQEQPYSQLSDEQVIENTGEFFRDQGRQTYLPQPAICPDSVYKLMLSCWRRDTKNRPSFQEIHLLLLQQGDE

[1] = tested on: P70S6K T389 phosphorylation in MDA-MB-231met2; assay: Western analysis after overnight treatment in tissue culture; assay type: cell-based, human; conditions: 0 to 20 μM, RPMI media
Experimental: (§1) The levels of total actin, AMPKα and P70S6K are also shown. […] Full images and the croppings used in this figure are shown in Supplemental Figures S4–S13.
(§2) Antibodies were purchased as follows: pAMPK Thr172 (Cell Signaling #2535), p-p70S6 Thr389 (Cell Signaling #9205), total p70S6 (Cell Signaling #2708), total AMPKα (Cell Signaling #2793) and Actin (Sigma #A5441). Frozen tumor samples were lysed with 500 µL ice cold lysis buffer plus Halt protease inhibitor (ThermoFisher #78430) using a Power Gen 125 tissue grinder (Fisher Scientific). Western blots were run as described in the supplemental material.
(§3) Western Blots: Lysis buffer is 0.01 mg/mL Leupeptin, 0.01 mg/mL Trypsin-Chymotrypsin, 0.01 mg/mL TPCK, 0.1 mg/mL Aprotinin, 60 mM β-Gly PO4, 1% Triton-100, 25 mM Tris pH 7.5, 2.5 µM Na2Pyrophosphate, 150 mM NaCl, 0.76 mg/mL TAME, 6.2 mg/mL PNPP, 0.8 mg/mL Benzamidine, 0.2 mg/mL Na3V04, 0.42 mg/mL NaF, 0.5 mg/mL PMSF or PEFA, 1 mM DTT, 15 mM EDTA pH 8.0, 5 mM EGTA pH 8.0, 1 µM Okadaic acid, and 1 µM microcystine. RNA and DNA were degraded by addition of Benzonase (Novagen) with a 30 min incubation on ice. Lysates were cleared by centrifugation at 4 °C for 10 min at 16,000 x g. Protein content was measured using Pierce BCA protein assay kit (Thermo Scientific). Twenty ug of total protein was resolved on a 4-20% Tris HCl Criterion XT precast gel (BioRad) at 100 V for 90 minutes. Transfer electrophoresed proteins to a 0.2 µm nitrocellulose membrane using Trans Blot Turbo System (BioRad). Block membranes for 1 hr at RT in Odyssey blocking buffer (LiCor). Probe overnight 4°C for primary antibodies. Wash blots 3 x 5 min in 20 mL PBS-0.1% Tween-20.

[2] = tested on: AMPK T172 phosphorylation in NCI-H460; assay: as above; assay type: cell-based, human; conditions: 0 to 20 μM, RPMI media
Experimental: as §1, §2, §3

[3] = tested on: P70S6K T389 phosphorylation in NCI-H460; assay: as above; assay type: cell-based, human; conditions: 0 to 20 μM, RPMI media
Experimental: as §1, §2, §3

[4] = tested on: AMPK T172 phosphorylation in MDA-MB-231met2; assay: as above; assay type: cell-based, human; conditions: 0 to 20 μM, RPMI media
Experimental: as §1, §2, §3

DRAK1 = biological target: T2, DRAK1 (Homo sapiens, UniProt Q9UEE5); assay: CEREP protein kinase assay; assay type: biochemical
T2 construct: purchased CEREP Panlabs (Eurofins)
T2 sequence (Q9UEE5 1-414): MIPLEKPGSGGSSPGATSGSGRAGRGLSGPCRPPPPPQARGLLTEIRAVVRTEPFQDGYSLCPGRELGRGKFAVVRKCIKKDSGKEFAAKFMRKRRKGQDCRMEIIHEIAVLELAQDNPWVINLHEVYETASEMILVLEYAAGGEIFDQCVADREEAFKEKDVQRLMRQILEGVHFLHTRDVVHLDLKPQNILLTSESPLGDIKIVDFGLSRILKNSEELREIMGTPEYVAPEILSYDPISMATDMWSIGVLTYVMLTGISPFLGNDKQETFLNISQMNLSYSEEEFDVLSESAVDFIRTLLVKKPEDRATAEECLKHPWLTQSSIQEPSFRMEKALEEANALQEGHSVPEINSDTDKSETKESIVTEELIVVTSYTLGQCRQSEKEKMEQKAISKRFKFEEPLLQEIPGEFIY

ERK2 = biological target: T3, ERK2 (Homo sapiens, UniProt P28482); assay: CEREP protein kinase assay; assay type: biochemical
T3 construct: purchased CEREP Panlabs (Eurofins)
T3 sequence (P28482 whole entry): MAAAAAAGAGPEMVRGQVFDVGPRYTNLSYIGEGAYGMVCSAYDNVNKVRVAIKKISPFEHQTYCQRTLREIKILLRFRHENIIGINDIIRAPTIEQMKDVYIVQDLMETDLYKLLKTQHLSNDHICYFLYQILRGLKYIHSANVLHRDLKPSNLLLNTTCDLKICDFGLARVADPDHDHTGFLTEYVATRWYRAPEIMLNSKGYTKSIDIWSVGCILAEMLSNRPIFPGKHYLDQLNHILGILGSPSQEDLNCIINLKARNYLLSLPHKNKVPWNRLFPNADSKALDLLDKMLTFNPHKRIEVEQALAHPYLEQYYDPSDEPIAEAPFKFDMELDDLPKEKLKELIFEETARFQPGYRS

## O=c1[nH]ccc2cc(F)c(NS(=O)(=O)c3ccc(N4CC[C@@H](O)C4)s3)cc12 [LSN3213128, N-(6-Fluoro-1-oxo-1,2-dihydroisoquinolin-7-yl)-5-[(3R)-3-hydroxypyrrolidin-1-yl]thiophene-2-sulfonamide]
DDR2; @ 0.2 uM
  inhibition at 0.2 µM: -16.5%
DDR2; @ 2 uM
  inhibition at 2 µM: -13.4%
DDR2; @ 20 uM
  inhibition at 20 µM: -3.1%
[1]
  P70S6K T389 phosphorylation: corresponding decrease
[2]
  phosphorylated AMPK T172: not increased
[3]
  phosphorylation of P70S6K T389: inhibits the phosphorylation
[4]
  AMPK T172 phosphorylation: expected increase
DRAK1; @ 0.2 uM
  inhibition at 0.2 µM: 4.41%
DRAK1; @ 2 uM
  inhibition at 2 µM: 13.9%
DRAK1; @ 20 uM
  inhibition at 20 µM: 20.3%
ERK2; @ 0.2 uM
  inhibition at 0.2 µM: -4.25%
ERK2; @ 2 uM
  inhibition at 2 µM: 11.1%
ERK2; @ 20 uM
  inhibition at 20 µM: 60.3%
